Laboratory results as given in the supplement of paper PMC10307832.

Key:
Assay in all cases: relative viability (nuclei count vs DMSO), 5 days (fraction); higher = more cells survive
Bosutinib + OSI-027 = compound: COc1cc(Nc2c(C#N)cnc3cc(OCCCN4CCN(C)CC4)c(OC)cc23)c(Cl)cc1Cl [Bosutinib] + COc1cccc2cc(-c3nc([C@H]4CC[C@H](C(=O)O)CC4)n4ncnc(N)c34)[nH]c12 [OSI-027] (partner 0.5 µM)
How it was run: (§1)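 Each reported value is a median over duplicate plates. It expresses relative viability: treated-well nuclei count divided by vehicle-well nuclei count. Lung cancer cell lines in 1536-well plates were dosed by pin tool a day after seeding, alone with one drug or with a fixed anchor-drug dose plus five library-drug doses (not always all listed) in √10 steps, and nuclei were counted after 5 days.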

Bosutinib + Alpelisib = compound: COc1cc(Nc2c(C#N)cnc3cc(OCCCN4CCN(C)CC4)c(OC)cc23)c(Cl)cc1Cl [Bosutinib] + Cc1nc(NC(=O)N2CCC[C@H]2C(N)=O)sc1-c1ccnc(C(C)(C)C(F)(F)F)c1 [Alpelisib] (partner 2 µM)
How it was run: as §1

Bosutinib + Luminespib = compound: COc1cc(Nc2c(C#N)cnc3cc(OCCCN4CCN(C)CC4)c(OC)cc23)c(Cl)cc1Cl [Bosutinib] + CCNC(=O)c1noc(-c2cc(C(C)C)c(O)cc2O)c1-c1ccc(CN2CCOCC2)cc1 [Luminespib] (partner 0.01 µM)
How it was run: as §1

Bosutinib + Foretinib = compound: COc1cc(Nc2c(C#N)cnc3cc(OCCCN4CCN(C)CC4)c(OC)cc23)c(Cl)cc1Cl [Bosutinib] + COc1cc2c(Oc3ccc(NC(=O)C4(C(=O)Nc5ccc(F)cc5)CC4)cc3F)ccnc2cc1OCCCN1CCOCC1 [Foretinib] (partner 0.25 µM)
How it was run: as §1

Bosutinib + Decitabine = compound: COc1cc(Nc2c(C#N)cnc3cc(OCCCN4CCN(C)CC4)c(OC)cc23)c(Cl)cc1Cl [Bosutinib] + Nc1ncn([C@H]2C[C@H](O)[C@@H](CO)O2)c(=O)n1 [Decitabine] (partner 2 µM)
How it was run: as §1

RERF-LC-KJ
relative viability (Bosutinib + OSI-027; first compound 0.01 µM): 0.594
relative viability (Bosutinib + OSI-027; first compound 0.03162 µM): 0.59
relative viability (Bosutinib + OSI-027; first compound 0.1 µM): 0.607
relative viability (Bosutinib + OSI-027; first compound 1 µM): 0.473
relative viability (Bosutinib + Alpelisib; first compound 0.01 µM): 0.702
relative viability (Bosutinib + Alpelisib; first compound 0.03162 µM): 0.834
relative viability (Bosutinib + Alpelisib; first compound 0.1 µM): 0.756
relative viability (Bosutinib + Alpelisib; first compound 1 µM): 0.678
relative viability (Bosutinib + Luminespib; first compound 0.01 µM): 1.22
relative viability (Bosutinib + Luminespib; first compound 0.03162 µM): 1.21
relative viability (Bosutinib + Luminespib; first compound 0.1 µM): 1.18
relative viability (Bosutinib + Luminespib; first compound 1 µM): 1.15
relative viability (Bosutinib + Foretinib; first compound 0.01 µM): 0.893
relative viability (Bosutinib + Foretinib; first compound 0.03162 µM): 0.888
relative viability (Bosutinib + Foretinib; first compound 0.1 µM): 0.815
relative viability (Bosutinib + Foretinib; first compound 1 µM): 0.867
relative viability (Bosutinib + Decitabine; first compound 0.01 µM): 0.643
relative viability (Bosutinib + Decitabine; first compound 0.03162 µM): 0.656
relative viability (Bosutinib + Decitabine; first compound 0.1 µM): 0.645
relative viability (Bosutinib + Decitabine; first compound 1 µM): 0.737

NCI-H322M
relative viability (Bosutinib + OSI-027; first compound 0.01 µM): 0.531
relative viability (Bosutinib + OSI-027; first compound 0.03162 µM): 0.566
relative viability (Bosutinib + OSI-027; first compound 0.1 µM): 0.549
relative viability (Bosutinib + OSI-027; first compound 1 µM): 0.422
relative viability (Bosutinib + Alpelisib; first compound 0.01 µM): 0.665
relative viability (Bosutinib + Alpelisib; first compound 0.03162 µM): 0.741
relative viability (Bosutinib + Alpelisib; first compound 0.1 µM): 0.717
relative viability (Bosutinib + Alpelisib; first compound 1 µM): 0.81
relative viability (Bosutinib + Luminespib; first compound 0.01 µM): 0.771
relative viability (Bosutinib + Luminespib; first compound 0.03162 µM): 0.754
relative viability (Bosutinib + Luminespib; first compound 0.1 µM): 0.793
relative viability (Bosutinib + Luminespib; first compound 1 µM): 0.333
relative viability (Bosutinib + Foretinib; first compound 0.01 µM): 1.04
relative viability (Bosutinib + Foretinib; first compound 0.03162 µM): 0.867
relative viability (Bosutinib + Foretinib; first compound 0.1 µM): 0.881
relative viability (Bosutinib + Foretinib; first compound 1 µM): 0.414
relative viability (Bosutinib + Decitabine; first compound 0.01 µM): 0.635
relative viability (Bosutinib + Decitabine; first compound 0.03162 µM): 0.735
relative viability (Bosutinib + Decitabine; first compound 0.1 µM): 0.616
relative viability (Bosutinib + Decitabine; first compound 1 µM): 0.493

NCI-H1651
relative viability (Bosutinib + OSI-027; first compound 0.01 µM): 0.678
relative viability (Bosutinib + OSI-027; first compound 0.03162 µM): 0.793
relative viability (Bosutinib + OSI-027; first compound 0.1 µM): 0.709
relative viability (Bosutinib + OSI-027; first compound 1 µM): 0.657
relative viability (Bosutinib + Alpelisib; first compound 0.01 µM): 0.928
relative viability (Bosutinib + Alpelisib; first compound 0.03162 µM): 0.961
relative viability (Bosutinib + Alpelisib; first compound 0.1 µM): 0.854
relative viability (Bosutinib + Alpelisib; first compound 1 µM): 0.734
relative viability (Bosutinib + Luminespib; first compound 0.01 µM): 0.738
relative viability (Bosutinib + Luminespib; first compound 0.03162 µM): 0.942
relative viability (Bosutinib + Luminespib; first compound 0.1 µM): 0.812
relative viability (Bosutinib + Luminespib; first compound 1 µM): 0.902
relative viability (Bosutinib + Foretinib; first compound 0.01 µM): 0.75
relative viability (Bosutinib + Foretinib; first compound 0.03162 µM): 0.737
relative viability (Bosutinib + Foretinib; first compound 0.1 µM): 0.909
relative viability (Bosutinib + Foretinib; first compound 1 µM): 0.8
relative viability (Bosutinib + Decitabine; first compound 0.01 µM): 0.511
relative viability (Bosutinib + Decitabine; first compound 0.03162 µM): 0.711
relative viability (Bosutinib + Decitabine; first compound 0.1 µM): 0.688
relative viability (Bosutinib + Decitabine; first compound 1 µM): 0.625

HARA
relative viability (Bosutinib + OSI-027; first compound 0.01 µM): 0.497
relative viability (Bosutinib + OSI-027; first compound 0.03162 µM): 0.512
relative viability (Bosutinib + OSI-027; first compound 0.1 µM): 0.503
relative viability (Bosutinib + OSI-027; first compound 1 µM): 0.344
relative viability (Bosutinib + Alpelisib; first compound 0.01 µM): 0.842
relative viability (Bosutinib + Alpelisib; first compound 0.03162 µM): 0.817
relative viability (Bosutinib + Alpelisib; first compound 0.1 µM): 0.874
relative viability (Bosutinib + Alpelisib; first compound 1 µM): 0.502
relative viability (Bosutinib + Luminespib; first compound 0.01 µM): 0.885
relative viability (Bosutinib + Luminespib; first compound 0.03162 µM): 0.549
relative viability (Bosutinib + Luminespib; first compound 0.1 µM): 0.682
relative viability (Bosutinib + Luminespib; first compound 1 µM): 0.741
relative viability (Bosutinib + Foretinib; first compound 0.01 µM): 0.869
relative viability (Bosutinib + Foretinib; first compound 0.03162 µM): 0.872
relative viability (Bosutinib + Foretinib; first compound 0.1 µM): 0.878
relative viability (Bosutinib + Foretinib; first compound 1 µM): 0.646
relative viability (Bosutinib + Decitabine; first compound 0.01 µM): 0.581
relative viability (Bosutinib + Decitabine; first compound 0.03162 µM): 0.547
relative viability (Bosutinib + Decitabine; first compound 0.1 µM): 0.618
relative viability (Bosutinib + Decitabine; first compound 1 µM): 0.489

H3255
relative viability (Bosutinib + OSI-027; first compound 0.01 µM): 0.558
relative viability (Bosutinib + OSI-027; first compound 0.03162 µM): 0.653
relative viability (Bosutinib + OSI-027; first compound 0.1 µM): 0.642
relative viability (Bosutinib + OSI-027; first compound 1 µM): 0.412
relative viability (Bosutinib + Alpelisib; first compound 0.01 µM): 0.686
relative viability (Bosutinib + Alpelisib; first compound 0.03162 µM): 0.743
relative viability (Bosutinib + Alpelisib; first compound 0.1 µM): 0.669
relative viability (Bosutinib + Alpelisib; first compound 1 µM): 0.198
relative viability (Bosutinib + Luminespib; first compound 0.01 µM): 1.11
relative viability (Bosutinib + Luminespib; first compound 0.03162 µM): 0.912
relative viability (Bosutinib + Luminespib; first compound 0.1 µM): 0.866
relative viability (Bosutinib + Luminespib; first compound 1 µM): 0.784
relative viability (Bosutinib + Foretinib; first compound 0.01 µM): 0.835
relative viability (Bosutinib + Foretinib; first compound 0.03162 µM): 0.885
relative viability (Bosutinib + Foretinib; first compound 0.1 µM): 0.969
relative viability (Bosutinib + Foretinib; first compound 1 µM): 0.79
relative viability (Bosutinib + Decitabine; first compound 0.03162 µM): 0.725
relative viability (Bosutinib + Decitabine; first compound 0.1 µM): 0.804
relative viability (Bosutinib + Decitabine; first compound 1 µM): 0.354

NCI-H441
relative viability (Bosutinib + OSI-027; first compound 0.01 µM): 0.622
relative viability (Bosutinib + OSI-027; first compound 0.03162 µM): 0.71
relative viability (Bosutinib + OSI-027; first compound 0.1 µM): 0.719
relative viability (Bosutinib + OSI-027; first compound 1 µM): 0.628
relative viability (Bosutinib + Alpelisib; first compound 0.01 µM): 0.475
relative viability (Bosutinib + Alpelisib; first compound 0.03162 µM): 0.689
relative viability (Bosutinib + Alpelisib; first compound 0.1 µM): 0.733
relative viability (Bosutinib + Alpelisib; first compound 1 µM): 1.11
relative viability (Bosutinib + Luminespib; first compound 0.01 µM): 0.362
relative viability (Bosutinib + Luminespib; first compound 0.03162 µM): 0.425
relative viability (Bosutinib + Luminespib; first compound 0.1 µM): 0.448
relative viability (Bosutinib + Luminespib; first compound 1 µM): 0.412
relative viability (Bosutinib + Foretinib; first compound 0.01 µM): 1.03
relative viability (Bosutinib + Foretinib; first compound 0.03162 µM): 1.21
relative viability (Bosutinib + Foretinib; first compound 0.1 µM): 1.22
relative viability (Bosutinib + Foretinib; first compound 1 µM): 1.25
relative viability (Bosutinib + Decitabine; first compound 0.01 µM): 0.24
relative viability (Bosutinib + Decitabine; first compound 0.03162 µM): 0.264
relative viability (Bosutinib + Decitabine; first compound 0.1 µM): 0.279
relative viability (Bosutinib + Decitabine; first compound 1 µM): 0.287

ABC-1
relative viability (Bosutinib + OSI-027; first compound 0.01 µM): 0.507
relative viability (Bosutinib + OSI-027; first compound 0.03162 µM): 0.471
relative viability (Bosutinib + OSI-027; first compound 0.1 µM): 0.432
relative viability (Bosutinib + OSI-027; first compound 1 µM): 0.577
relative viability (Bosutinib + Alpelisib; first compound 0.01 µM): 0.938
relative viability (Bosutinib + Alpelisib; first compound 0.03162 µM): 0.944
relative viability (Bosutinib + Alpelisib; first compound 0.1 µM): 0.897
relative viability (Bosutinib + Alpelisib; first compound 1 µM): 0.731
relative viability (Bosutinib + Luminespib; first compound 0.01 µM): 0.665
relative viability (Bosutinib + Luminespib; first compound 0.03162 µM): 0.536
relative viability (Bosutinib + Luminespib; first compound 0.1 µM): 0.713
relative viability (Bosutinib + Luminespib; first compound 1 µM): 0.481
relative viability (Bosutinib + Foretinib; first compound 0.01 µM): 0.902
relative viability (Bosutinib + Foretinib; first compound 0.03162 µM): 1.17
relative viability (Bosutinib + Foretinib; first compound 0.1 µM): 1.21
relative viability (Bosutinib + Foretinib; first compound 1 µM): 0.895
relative viability (Bosutinib + Decitabine; first compound 0.01 µM): 1.21
relative viability (Bosutinib + Decitabine; first compound 0.03162 µM): 1.22
relative viability (Bosutinib + Decitabine; first compound 0.1 µM): 0.997
relative viability (Bosutinib + Decitabine; first compound 1 µM): 0.807

NCI-H1437
relative viability (Bosutinib + OSI-027; first compound 0.01 µM): 0.887
relative viability (Bosutinib + OSI-027; first compound 0.03162 µM): 0.878
relative viability (Bosutinib + OSI-027; first compound 0.1 µM): 0.938
relative viability (Bosutinib + OSI-027; first compound 1 µM): 0.886
relative viability (Bosutinib + Alpelisib; first compound 0.01 µM): 0.939
relative viability (Bosutinib + Alpelisib; first compound 0.03162 µM): 0.954
relative viability (Bosutinib + Alpelisib; first compound 0.1 µM): 1.04
relative viability (Bosutinib + Alpelisib; first compound 1 µM): 0.862
relative viability (Bosutinib + Luminespib; first compound 0.01 µM): 1.02
relative viability (Bosutinib + Luminespib; first compound 0.03162 µM): 1.11
relative viability (Bosutinib + Luminespib; first compound 0.1 µM): 1.1
relative viability (Bosutinib + Luminespib; first compound 1 µM): 1.03
relative viability (Bosutinib + Foretinib; first compound 0.01 µM): 1.23
relative viability (Bosutinib + Foretinib; first compound 0.03162 µM): 1.2
relative viability (Bosutinib + Foretinib; first compound 0.1 µM): 1.14
relative viability (Bosutinib + Foretinib; first compound 1 µM): 1.1
relative viability (Bosutinib + Decitabine; first compound 0.01 µM): 0.536
relative viability (Bosutinib + Decitabine; first compound 0.03162 µM): 0.567
relative viability (Bosutinib + Decitabine; first compound 0.1 µM): 0.572
relative viability (Bosutinib + Decitabine; first compound 1 µM): 0.482
